Measurements published in ChEMBL document CHEMBL1201862, “PubChem BioAssay data set” (2004).
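Results reflect a 48-hour exposure of cells in 96-well plates to compound at five concentrations. GI50 is the concentration that inhibits growth by half.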 Calls of active or inactive are those of the source. No stated cut-off is given here; in the data, active = GI50 up to about 1.1 µM and inactive = higher.

Key:
Test in all cases: NCI anticancer screen, dose series, 48 h
U-251 = system: U-251
RXF 393 = system: RXF 393
OVCAR-4 = system: OVCAR-4
MDA-MB-435 = system: MDA-MB-435
A549 = system: A549
HOP-62 = system: HOP-62
Hs-578T = system: Hs-578T
SF-295 = system: SF-295
786-0 = system: 786-0
SR = system: SR
UACC-257 = system: UACC-257
SN12C = system: SN12C
OVCAR-3 = system: OVCAR-3
NCI-H23 = system: NCI-H23
RPMI-8226 = system: RPMI-8226
HL-60 = system: HL-60
SK-MEL-28 = system: SK-MEL-28
K562 = system: K562
SK-MEL-5 = system: SK-MEL-5
NCI-H522 = system: NCI-H522
COLO 205 = system: COLO 205
SK-MEL-2 = system: SK-MEL-2
LOX IMVI = system: LOX IMVI
HT-29 = system: HT-29
EKVX = system: EKVX
Malme-3M = system: Malme-3M
A498 = system: A498
MDA-N = system: MDA-N
KM12 = system: KM12
T47D = system: T47D
PC-3 = system: PC-3
TK-10 = system: TK-10
CCRF-CEM = system: CCRF-CEM
SW-620 = system: SW-620
MDA-MB-231 = system: MDA-MB-231
UACC-62 = system: UACC-62
NCI-H226 = system: NCI-H226
SK-OV-3 = system: SK-OV-3
HCT-15 = system: HCT-15
OVCAR-8 = system: OVCAR-8
MCF7 = system: MCF7
CAKI-1 = system: CAKI-1
SF-539 = system: SF-539
M14 = system: M14
IGROV-1 = system: IGROV-1
MOLT-4 = system: MOLT-4
DU-145 = system: DU-145
OVCAR-5 = system: OVCAR-5
NCI-H460 = system: NCI-H460
SNB-19 = system: SNB-19
BT-549 = system: BT-549
NCI/ADR-RES = system: NCI/ADR-RES
HCC 2998 = system: HCC 2998
SNB-75 = system: SNB-75
ACHN = system: ACHN
HCT-116 = system: HCT-116
SF-268 = system: SF-268
UO-31 = system: UO-31
HOP-92 = system: HOP-92

Measured: GI50

COc1cc([C@@H]2c3cc4c(cc3[C@@H](/N=C/c3ccc(C(=O)O[C@H]5C[C@H]6OC[C@@]6(OC(C)=O)[C@H]6[C@H](OC(=O)c7ccccc7)[C@]7(O)C[C@H](OC(=O)[C@H](OC(=O)c8ccc(/C=N/[C@@H]9c%10cc%11c(cc%10[C@@H](c%10cc(OC)c(O)c(OC)c%10)[C@H]%10C(=O)OC[C@@H]%109)OCO%11)cc8)[C@@H](NC(=O)c8ccccc8)c8ccccc8)C(C)=C([C@@H](OC(C)=O)C(=O)[C@]56C)C7(C)C)cc3)C3COC(=O)C32)OCO4)cc(C)c1O (stereo partly drawn)
inactive: U-251 13.3 µM | RXF 393 2.96 µM | OVCAR-4 > 29.6 µM | MDA-MB-435 2.33 µM | A549 13.7 µM | HOP-62 12.7 µM | Hs-578T > 46 µM | SF-295 5.07 µM | 786-0 7.55 µM | SR 8.02 µM | UACC-257 26.2 µM | SN12C 18.8 µM | OVCAR-3 6.85 µM | NCI-H23 17.2 µM | RPMI-8226 > 50 µM | HL-60 > 13.9 µM | SK-MEL-28 > 18.1 µM | K562 2.19 µM | SK-MEL-5 5.28 µM | NCI-H522 9.06 µM | COLO 205 19.6 µM | SK-MEL-2 13.7 µM | LOX IMVI 22.9 µM | HT-29 10.9 µM | EKVX 14.5 µM | Malme-3M > 24 µM | A498 5.16 µM | MDA-N 1.82 µM | KM12 22.3 µM | T47D > 50 µM | PC-3 6.58 µM | TK-10 > 50 µM | CCRF-CEM 30 µM | SW-620 13.4 µM | MDA-MB-231 > 25.2 µM | UACC-62 6.32 µM | NCI-H226 10.9 µM | SK-OV-3 9.2 µM | OVCAR-8 17.9 µM | MCF7 7.6 µM | CAKI-1 12.8 µM | SF-539 7.23 µM | M14 6.49 µM | IGROV-1 14.7 µM | MOLT-4 16.3 µM | DU-145 24.5 µM | OVCAR-5 > 15.5 µM | NCI-H460 15.3 µM | SNB-19 17.5 µM | BT-549 49.7 µM | NCI/ADR-RES 15.2 µM | HCC 2998 > 50 µM | SNB-75 4.25 µM | ACHN 20.8 µM | HCT-116 9.08 µM | SF-268 > 31.5 µM
19.2 µM: HCT-15

COC(=O)C(Cc1ccccc1)NP(=O)(O)OCC1OC(n2cc(F)c(=O)[nH]c2=O)CC1O (stereo not drawn)
inactive: U-251 8.99 µM | RXF 393 > 100 µM | OVCAR-4 > 100 µM | MDA-MB-435 > 86.3 µM | HOP-62 2.58 µM | Hs-578T > 82.8 µM | SF-295 3.72 µM | 786-0 4.14 µM | SR 2.54 µM | UACC-257 > 56 µM | SN12C 10.4 µM | UO-31 5.24 µM | OVCAR-3 > 100 µM | NCI-H23 10.9 µM | RPMI-8226 > 79.6 µM | HL-60 10.5 µM | SK-MEL-28 > 67 µM | K562 65.3 µM | SK-MEL-5 15.3 µM | NCI-H522 > 100 µM | COLO 205 74 µM | SK-MEL-2 > 100 µM | LOX IMVI 3.21 µM | HT-29 11.2 µM | EKVX > 100 µM | Malme-3M > 100 µM | A498 7.38 µM | MDA-N > 69 µM | KM12 > 100 µM | T47D 12.6 µM | PC-3 > 78.5 µM | TK-10 > 100 µM | SW-620 > 100 µM | MDA-MB-231 > 100 µM | UACC-62 7 µM | NCI-H226 > 33.4 µM | SK-OV-3 61.4 µM | OVCAR-8 9.12 µM | CAKI-1 3.72 µM | M14 21.3 µM | IGROV-1 > 22.5 µM | MOLT-4 4.78 µM | DU-145 9.79 µM | OVCAR-5 > 100 µM | SNB-19 3.34 µM | BT-549 > 100 µM | NCI/ADR-RES 5.7 µM | HCC 2998 2.39 µM | SNB-75 > 31.9 µM | ACHN 1.44 µM | HCT-116 5.53 µM | SF-268 1.75 µM
> 100 µM: HCT-15
active: A549 0.955 µM | CCRF-CEM 1.1 µM | MCF7 0.317 µM | SF-539 0.991 µM | NCI-H460 0.236 µM

CCOC(=O)C1C(c2ccc(OC)cc2)c2c(n[nH]c2O)CC1(C)O (stereo not drawn)
inactive: U-251 > 100 µM | OVCAR-4 > 100 µM | MDA-MB-435 > 100 µM | A549 > 100 µM | HOP-62 > 100 µM | Hs-578T > 100 µM | SF-295 45.1 µM | 786-0 > 100 µM | SR > 100 µM | UACC-257 > 100 µM | SN12C > 100 µM | UO-31 > 100 µM | OVCAR-3 > 100 µM | NCI-H23 > 100 µM | RPMI-8226 > 100 µM | HL-60 > 100 µM | SK-MEL-28 > 100 µM | SK-MEL-5 > 100 µM | NCI-H522 > 100 µM | COLO 205 > 100 µM | SK-MEL-2 > 100 µM | LOX IMVI > 100 µM | HT-29 > 100 µM | HOP-92 > 100 µM | EKVX > 100 µM | Malme-3M > 100 µM | A498 > 100 µM | MDA-N > 100 µM | KM12 > 100 µM | T47D > 100 µM | PC-3 > 100 µM | TK-10 > 100 µM | CCRF-CEM > 100 µM | SW-620 > 100 µM | MDA-MB-231 > 100 µM | UACC-62 > 100 µM | OVCAR-8 > 100 µM | MCF7 > 100 µM | CAKI-1 > 100 µM | SF-539 > 100 µM | M14 > 100 µM | IGROV-1 > 100 µM | MOLT-4 > 100 µM | DU-145 > 100 µM | OVCAR-5 > 100 µM | NCI-H460 > 100 µM | SNB-19 > 100 µM | BT-549 > 100 µM | NCI/ADR-RES > 100 µM | HCC 2998 > 100 µM | SNB-75 > 100 µM | ACHN > 100 µM | HCT-116 > 100 µM | SF-268 > 100 µM
> 100 µM: HCT-15

NC(=O)N/N=C1\CC2C3CC4C2C4C13 (stereo not drawn)
inactive: U-251 > 100 µM | OVCAR-4 91 µM | MDA-MB-435 > 100 µM | A549 > 100 µM | HOP-62 > 100 µM | Hs-578T > 100 µM | SF-295 > 100 µM | 786-0 > 100 µM | SR > 100 µM | UACC-257 > 100 µM | SN12C > 100 µM | UO-31 > 100 µM | OVCAR-3 > 100 µM | NCI-H23 > 100 µM | RPMI-8226 > 100 µM | HL-60 > 100 µM | SK-MEL-28 > 100 µM | K562 > 100 µM | SK-MEL-5 > 100 µM | NCI-H522 > 100 µM | COLO 205 > 100 µM | SK-MEL-2 > 100 µM | LOX IMVI > 100 µM | HT-29 > 100 µM | HOP-92 > 100 µM | EKVX > 100 µM | Malme-3M > 100 µM | A498 > 100 µM | MDA-N > 100 µM | KM12 > 100 µM | T47D > 100 µM | PC-3 > 100 µM | TK-10 > 100 µM | CCRF-CEM > 100 µM | SW-620 > 100 µM | MDA-MB-231 > 100 µM | UACC-62 > 100 µM | NCI-H226 > 100 µM | SK-OV-3 > 100 µM | OVCAR-8 > 100 µM | MCF7 > 100 µM | CAKI-1 > 100 µM | SF-539 > 100 µM | M14 > 100 µM | IGROV-1 > 100 µM | MOLT-4 > 100 µM | DU-145 > 100 µM | OVCAR-5 > 100 µM | NCI-H460 > 100 µM | SNB-19 > 100 µM | BT-549 > 100 µM | NCI/ADR-RES > 100 µM | HCC 2998 > 100 µM | SNB-75 > 100 µM | ACHN > 100 µM | HCT-116 > 100 µM | SF-268 > 100 µM
> 100 µM: HCT-15
